Experimental data: ChEMBL document CHEMBL1201862, “PubChem BioAssay data set” (2004)
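Protocol summary: plate cells (96-well), add compound at 5 concentrations, incubate 48 h, interpolate endpoints linearly. GI50 = concentration required for 50% inhibition of growth.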 Activity calls are given as the source filed them. No stated cut-off is given here; in the data, active = GI50 up to about 1.1 µM and inactive = higher.

Columns and labels:
Assay in all cases: inhibition of tumour cell growth, NCI panel, 48 h
ACHN = test system: ACHN
CCRF-CEM = test system: CCRF-CEM
HCT-116 = test system: HCT-116
K562 = test system: K562
M14 = test system: M14
M19-MEL = test system: M19-MEL
RPMI-8226 = test system: RPMI-8226
SF-539 = test system: SF-539
SNB-75 = test system: SNB-75
CAKI-1 = test system: CAKI-1
DLD-1 = test system: DLD-1
RXF 393 = test system: RXF 393
SK-MEL-5 = test system: SK-MEL-5
786-0 = test system: 786-0
Hs-578T = test system: Hs-578T
MCF7 = test system: MCF7
PC-3 = test system: PC-3
DU-145 = test system: DU-145
MDA-N = test system: MDA-N
MDA-MB-231 = test system: MDA-MB-231

Row | SMILES | GI50 (ACHN) | GI50 (CCRF-CEM) | GI50 (HCT-116) | GI50 (K562) | GI50 (M14) | GI50 (M19-MEL) | GI50 (RPMI-8226) | GI50 (SF-539) | GI50 (SNB-75) | GI50 (CAKI-1) | GI50 (DLD-1) | GI50 (RXF 393) | GI50 (SK-MEL-5) | GI50 (786-0) | GI50 (Hs-578T) | GI50 (MCF7) | GI50 (PC-3) | GI50 (DU-145) | GI50 (MDA-N) | GI50 (MDA-MB-231)
1 | CCN(CC)CCCC(C)Nc1cc(-c2ccccc2)nc2cc(OC)ccc12 (stereo not drawn) | 6.53 µM (inactive) | 1.3 µM (inactive) | 2.84 µM (inactive) | 0.8 µM (active) | 1.84 µM (inactive) | 10.1 µM (inactive) | 2.07 µM (inactive) | 3.05 µM (inactive) | 11.8 µM (inactive) |  |  |  |  |  |  |  |  |  |  | 
2 | COc1nc2[nH]ccc2c(=O)[nH]1 | > 100 µM (inactive) | > 100 µM (inactive) | > 100 µM (inactive) | > 100 µM (inactive) | > 100 µM (inactive) |  | > 100 µM (inactive) | > 100 µM (inactive) | > 100 µM (inactive) | > 100 µM (inactive) | > 100 µM (inactive) | > 100 µM (inactive) | > 100 µM (inactive) |  |  |  |  |  |  | 
3 | CCOC(=O)COc1cccc2occc(=O)c12 | > 100 µM (inactive) | > 100 µM (inactive) | > 100 µM (inactive) | > 100 µM (inactive) | > 100 µM (inactive) | > 100 µM (inactive) | > 100 µM (inactive) | > 100 µM (inactive) |  | > 100 µM (inactive) | > 100 µM (inactive) |  | > 100 µM (inactive) | > 100 µM (inactive) |  |  |  |  |  | 
4 | O=C(NC(COC(=O)C(Cc1ccccc1)NC(=O)c1ccccc1)Cc1ccccc1)c1ccccc1 (stereo not drawn) | > 50 µM (inactive) |  |  | > 50 µM (inactive) | > 50 µM (inactive) |  | > 50 µM (inactive) | > 50 µM (inactive) | > 50 µM (inactive) |  |  |  |  |  | > 50 µM (inactive) | > 50 µM (inactive) | > 50 µM (inactive) |  |  | 
5 | CCC(C)(C)n1c(C)nc2c1C(=O)c1ccccc1C2=O | 32.9 µM (inactive) | 29.7 µM (inactive) | 13.6 µM (inactive) | 13.6 µM (inactive) | 42.5 µM (inactive) | 15.7 µM (inactive) |  | 26.5 µM (inactive) | 27.2 µM (inactive) |  | 15.6 µM (inactive) | 21.1 µM (inactive) | 15.7 µM (inactive) | 39.5 µM (inactive) |  |  |  |  |  | 
6 | CC1(C)OP(=O)(O)CC1=O | > 100 µM (inactive) |  | > 100 µM (inactive) | > 100 µM (inactive) | > 100 µM (inactive) |  |  | > 100 µM (inactive) |  | > 100 µM (inactive) |  |  | > 100 µM (inactive) | > 100 µM (inactive) | > 100 µM (inactive) | > 100 µM (inactive) | > 100 µM (inactive) | > 100 µM (inactive) | > 100 µM (inactive) | 
7 | N#CC1(C#N)C2C=CC(C3CCC=C32)C1(C#N)C#N (stereo not drawn) | > 6.37 µM (inactive) | 1.91 µM (inactive) | > 6.56 µM (inactive) | 3.37 µM (inactive) | 5.79 µM (inactive) |  | 2.83 µM (inactive) | > 10 µM (inactive) | > 10 µM (inactive) | 6.37 µM (inactive) |  | > 10 µM (inactive) | > 10 µM (inactive) | > 5.66 µM (inactive) | > 10 µM (inactive) | > 8.2 µM (inactive) | > 10 µM (inactive) | > 10 µM (inactive) | > 10 µM (inactive) | > 10 µM (inactive)
8 | OCC1OC(n2ccc3cnccc32)CC1O (stereo not drawn) | > 100 µM (inactive) | > 100 µM (inactive) | > 100 µM (inactive) | > 100 µM (inactive) | > 100 µM (inactive) | > 100 µM (inactive) | > 100 µM (inactive) | > 100 µM (inactive) | > 100 µM (inactive) | > 100 µM (inactive) | > 100 µM (inactive) |  | > 100 µM (inactive) | > 100 µM (inactive) |  |  |  |  |  | 
9 | Cc1cn(Cc2cnnn2CC2OC(n3cc(C)c(=O)[nH]c3=O)CC2O)c(=O)[nH]c1=O (stereo not drawn) | > 100 µM (inactive) | > 100 µM (inactive) | > 100 µM (inactive) |  | > 100 µM (inactive) |  | > 100 µM (inactive) | > 100 µM (inactive) |  | > 100 µM (inactive) |  | > 100 µM (inactive) | > 100 µM (inactive) |  | > 100 µM (inactive) | > 100 µM (inactive) | > 100 µM (inactive) | > 100 µM (inactive) | > 100 µM (inactive) | > 100 µM (inactive)
10 | CN1C(=O)CN=C(c2ccccc2F)c2cc(N=C=S)ccc21 | 25.5 µM (inactive) | 19.2 µM (inactive) | 44.3 µM (inactive) |  | 52.1 µM (inactive) |  |  |  | 33.5 µM (inactive) | 11.3 µM (inactive) |  | 36.6 µM (inactive) |  | 43.8 µM (inactive) | 61.7 µM (inactive) | 29.5 µM (inactive) | 45.9 µM (inactive) | 86.3 µM (inactive) | 54.3 µM (inactive) | 45.8 µM (inactive)
11 | O=c1c(-c2ccccc2)c(SCCCN2CCCCC2)n(-c2ccccc2)c(=S)n1-c1ccccc1 | 17.4 µM (inactive) | 15.7 µM (inactive) |  | 14.1 µM (inactive) |  |  | 17 µM (inactive) | 15.7 µM (inactive) | 15.3 µM (inactive) | 19.5 µM (inactive) |  | 14.3 µM (inactive) | 16 µM (inactive) |  | 34.2 µM (inactive) | 15.6 µM (inactive) | 16.5 µM (inactive) | 17.7 µM (inactive) |  | 14.5 µM (inactive)
12 | FC(F)(F)C(C1=NC(C(F)(F)F)(C(F)(F)F)N=C(N2CCOCC2)O1)C(F)(F)F | 17.4 µM (inactive) | 4.71 µM (inactive) | 27.7 µM (inactive) |  | 18.8 µM (inactive) |  | 20.8 µM (inactive) | 22.4 µM (inactive) | 29.5 µM (inactive) | 23.2 µM (inactive) |  | 15.7 µM (inactive) | 11.9 µM (inactive) |  | 32.4 µM (inactive) | > 10 µM (inactive) | 16.9 µM (inactive) | 35.5 µM (inactive) | 19.1 µM (inactive) | 14.4 µM (inactive)
13 | Cc1ccc([N+](=O)[O-])cc1NC(=O)C(=O)C(C(=O)c1ccccc1F)C1OC(=O)c2ccccc21 (stereo not drawn) | 62.2 µM (inactive) | 26.8 µM (inactive) | 31.5 µM (inactive) | 32.7 µM (inactive) | 66.8 µM (inactive) | 33.4 µM (inactive) | 29.4 µM (inactive) | 24.5 µM (inactive) | 38.5 µM (inactive) | 53.8 µM (inactive) | 41.5 µM (inactive) | 20.5 µM (inactive) | 63.1 µM (inactive) |  |  |  |  |  |  | 
14 | CCOC(=O)CSc1c(C(=O)OCC)c(=O)n(-c2ccccc2)c(=S)n1-c1ccccc1 | 36 µM (inactive) | 4.92 µM (inactive) | 45.7 µM (inactive) | 7.53 µM (inactive) | > 100 µM (inactive) |  | 37.5 µM (inactive) |  | 54.6 µM (inactive) | > 100 µM (inactive) |  |  | 23.5 µM (inactive) | 85.5 µM (inactive) | 33 µM (inactive) | 15.2 µM (inactive) | 4.61 µM (inactive) | 82 µM (inactive) | > 100 µM (inactive) | 
15 | CC(=O)OCC1OC(n2c(-c3ccc(Cl)cc3)cc(-c3ccccc3)c(C#N)c2=S)C(OC(C)=O)C(OC(C)=O)C1OC(C)=O (stereo not drawn) | 13.5 µM (inactive) |  | 6.11 µM (inactive) | 3.66 µM (inactive) | 4.98 µM (inactive) |  | 8.91 µM (inactive) | 3.99 µM (inactive) | 8.13 µM (inactive) | 13.9 µM (inactive) |  | 13.3 µM (inactive) | 11.4 µM (inactive) | 12.2 µM (inactive) | 2.71 µM (inactive) | 17.3 µM (inactive) | 11.3 µM (inactive) | 15.7 µM (inactive) | 11.3 µM (inactive) | 4.33 µM (inactive)
16 | N#CC1(CCCI)CCCC1 | 21.4 µM (inactive) | 11.5 µM (inactive) | 4.18 µM (inactive) | 27.7 µM (inactive) | 5.83 µM (inactive) | 5.36 µM (inactive) |  | 15.5 µM (inactive) | 1.53 µM (inactive) |  | 19.1 µM (inactive) | 11 µM (inactive) | 12.9 µM (inactive) |  |  |  |  |  |  | 
17 | CC1(C)COC2C(N(Cc3ccccc3)Cc3ccccc3)C(=O)N21 (stereo not drawn) | 35.6 µM (inactive) | 32.7 µM (inactive) | 33.4 µM (inactive) | 27.9 µM (inactive) | 23.1 µM (inactive) | 73.8 µM (inactive) | 20.9 µM (inactive) | 25.9 µM (inactive) | 20 µM (inactive) | 39.2 µM (inactive) | 50 µM (inactive) | 19.3 µM (inactive) | 37.2 µM (inactive) | 31 µM (inactive) |  |  |  |  |  | 
18 | N#Cc1c(-c2ccccc2)cn(C(=O)c2ccccc2)c1N | > 100 µM (inactive) | > 100 µM (inactive) | > 100 µM (inactive) | > 100 µM (inactive) | > 100 µM (inactive) |  | > 100 µM (inactive) |  | > 100 µM (inactive) |  |  |  | > 100 µM (inactive) | > 100 µM (inactive) | > 100 µM (inactive) | > 100 µM (inactive) | > 100 µM (inactive) | > 100 µM (inactive) | > 100 µM (inactive) | > 100 µM (inactive)
19 | CCOC(=O)Nc1ccc(S(=O)(=O)NCCCl)cc1.CCOC(=O)Nc1ccc(S(=O)(=O)NCCCl)cc1.O=C(O)c1ccc(/N=N/Cl)cc1O | > 100 µM (inactive) | > 100 µM (inactive) |  | > 100 µM (inactive) | > 100 µM (inactive) | > 100 µM (inactive) |  | > 100 µM (inactive) | > 100 µM (inactive) | > 100 µM (inactive) | > 100 µM (inactive) |  | > 100 µM (inactive) |  |  |  |  |  |  | 
20 | C=CCNC(=S)N/N=C1\C(=O)Nc2ccc([N+](=O)[O-])cc21 | 23.3 µM (inactive) | 5.13 µM (inactive) | 24.8 µM (inactive) | 32.1 µM (inactive) | 62.1 µM (inactive) |  | 57.3 µM (inactive) | > 100 µM (inactive) |  | 14.2 µM (inactive) |  | 16.8 µM (inactive) | 30.1 µM (inactive) |  | > 100 µM (inactive) | 36.1 µM (inactive) | > 100 µM (inactive) | 31.4 µM (inactive) | 83 µM (inactive) | > 100 µM (inactive)
